Data as given in patent US10669240B2, “5-substituted indazole-3-carboxamides and preparation and use thereof” (Samumed, LLC, priority 2014, dated 2020).

Columns and labels:
Format in all cases: cell-based
[1] = system: Wnt activity (Wnt-responsive SP5 promoter luciferase reporter in SW480 cells); assay: Wnt activity reporter assay: SW480 cells with SP5 promoter-driven firefly luciferase; settings: Homo sapiens, 24 h after compound addition, read-out: Wnt inhibition
Method in brief: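 SW480 cells (APC-mutant colon line) stably carrying a lentiviral SP5-promoter (eight TCF/LEF sites) firefly luciferase reporter were plated at ~10,000 cells/well. Luminescence was normalized to DMSO-only cells and used for IC50.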

[2] = biological target: DYRK1A (Homo sapiens (Human), UniProt Q13627); assay: DYRK1A activity Tau assay: pSer396 Tau in SH-SY5Y cells by ELISA / western blot; settings: overnight (16-18 h) exposure
Excerpt: In another example, in vitro assays for DYRK1A biological activity may be used, e.g. regulation of microtubule-associated protein tau (MAPT/Tau) phosphorylation in neuronal cell line such as the human SH-SY5Y neuroblastoma cell line. Assays for DYRK1a-regulated level of phosphorylation can include monitoring levels of basal pSer396 Tau, which can be measured, for example, by serial dilutions of a candidate inhibitor composition using a ten micromolar top concentration and detected by ELISA or Western Blotting. An exemplary assay for DYRK-1a-regulated phosphorylation uses the SH-SY5Y cells cultured in a 96 well plate format for a period of time sufficient to stabilize microtubules and Tau phosphorylation, usually at least 2 days, then treated with a 1/3 serial dilution of compounds overnight and lysed. The cell lysate is resolved by SDS PAGE, then transferred to nitrocellulose and probed with an antibody specific for pSer396 Tau.
In a further example, the activity of a candidate compound can be measured by ELISA by adding the lysate mentioned above onto total Tau-coated plates and detected with a specific pSer396 antibody.

[3] = system: primary human mesenchymal stem cells (hMSCs); assay: Chondrogenesis assay in primary human mesenchymal stem cells, nodule count vs TGF-β3 positive control; settings: 6 days; for Conc (nM) of Max. activity: 6-point dose-response 2700 nM to 10 nM, dose at which maximum chondrogenesis activity was reached; for Max. Activity as % TGF-β3 activity: relative to TGF-β3 (10 ng/mL) positive control; for Conc (nM) of 100% TGF-β3 activity: concentration required to induce chondrogenesis equivalent to TGF-β3 (10 ng/mL)
Excerpt: The above synthesized compounds were screened using primary human mesenchymal stem cells (hMSCs) to determine their ability to induce chondrogenesis (process by which cartilage is developed).
Human Mesenchymal Stem Cell Culture:
Primary human mesenchymal stem cells (hMSCs) were purchased from Lonza (Walkersville, Md.) and expanded in Mesenchymal Stem Cell Growth Media (Lonza). Cells between passage 3 and 6 were used for the experiments.
Number of nodules in each well was normalized to the average of 3 DMSO treated wells on the same plate using Excel (Microsoft Inc.). The normalized averages (fold change over DMSO) of 3 replicate wells for each compound concentration were calculated. Due to solubility limitations of some of the compounds, curve fitting was incomplete leading to inaccurate EC50 determinations.
Using TGF-β3 as a positive control, the concentration of test compounds required to induce equivalent levels of chondrogenesis is reported. In addition, the maximum activity of each compound and the respective dose that each compound reached maximum chondrogenesis activity is reported.

[4] = system: primary human fibroblasts derived from IPF patients (LL29 cells); assay: Inhibition of the fibrotic process: αSMA staining in TGF-β1 treated LL29 fibroblasts; settings: Fibroblast, 72 h, TGF-β1 10 ng/ml, 3 days, read-out: Inhibition of fibrosis IC50
Protocol: The above synthesized compounds were screened using primary human fibroblasts (derived from IPF patients) treated with TGF-β1 to determine their ability to inhibit the fibrotic process.
Each compound was dissolved in DMSO as a 10 mM stock and used to prepare compound source plates. […] LL29 cells were plated at 1,000 cells/well in 50 μl/well serum free F12 medium. […] Wells untreated with TGF-β1 were used as control for normalization and calculating IC50 values. Cells were incubated at 37° C. and 5% CO2 for 3 days. Cells were fixed using 4% formaldehyde (Electron Microscopy Sciences), washed 3 times with PBS followed by blocking and permeabilization using 3% Bovine Serum Albumin (BSA; Sigma) and 0.3% Triton X-100 (Sigma) in PBS. […] The IC50 values are reported.

SMILES: COc1ccc(NC(=O)c2n[nH]c3ccc(-c4cncc(CN5CCC(F)(F)C5)c4)cc23)cn1 [Compound 54, 5-(5-((3,3-Difluoropyrrolidin-1-yl)methyl)pyridin-3-yl)-N-(6-methoxypyridin-3-yl)-1H-indazole-3-carboxamide]
- IC50 [1]: 5 nM
- EC50 [2]: 2 nM
- Conc (nM) of Max. activity [3]: 300 nM
- Max. Activity as % TGF-β3 activity [3]: 51%
- IC50 [4]: 51 nM

SMILES: O=C(Nc1cccnc1)c1n[nH]c2ccc(-c3cncc(CN4CC5CC(C4)O5)c3)cc12 [Compound 84, 5-(5-((6-Oxa-3-azabicyclo[3.1.1]heptan-3-yl)methyl)pyridin-3-yl)-N-(pyridin-3-yl)-1H-indazole-3-carboxamide]
- IC50 [1]: 67 nM
- Conc (nM) of Max. activity [3]: 900 nM
- Conc (nM) of 100% TGF-β3 activity [3]: 900 nM
- Max. Activity as % TGF-β3 activity [3]: 121%
- IC50 [4]: 132 nM

SMILES: CC(C)N1CCC(NC(=O)c2n[nH]c3ccc(-c4cccnc4)cc23)CC1 [Compound 90, N-(1-Isopropylpiperidin-4-yl)-5-(pyridin-3-yl)-1H-indazole-3-carboxamide]
- EC50 [2]: 15 nM
- Conc (nM) of Max. activity [3]: 2700 nM
- Conc (nM) of 100% TGF-β3 activity [3]: 2700 nM
- Max. Activity as % TGF-β3 activity [3]: 169%

SMILES: O=C(NC1CCCCC1)c1n[nH]c2ccc(-c3cncc(N4CCCC4)c3)cc12 [Compound 200, N-Cyclohexyl-5-(5-(pyrrolidin-1-yl)pyridin-3-yl)-1H-indazole-3-carboxamide]
- EC50 [2]: 58 nM
- Conc (nM) of Max. activity [3]: 2700 nM
- Conc (nM) of 100% TGF-β3 activity [3]: 2700 nM
- Max. Activity as % TGF-β3 activity [3]: 138%

SMILES: CC(C)Oc1ccc(NC(=O)c2n[nH]c3ccc(-c4cncc(CN5CC6CC(C5)O6)c4)cc23)cn1 [Compound 85, 5-(5-((6-Oxa-3-azabicyclo[3.1.1]heptan-3-yl)methyl)pyridin-3-yl)-N-(6-isopropoxypyridin-3-yl)-1H-indazole-3-carboxamide]
- IC50 [1]: 61 nM
- EC50 [2]: 4 nM
- Conc (nM) of Max. activity [3]: 900 nM
- Max. Activity as % TGF-β3 activity [3]: 49%
- IC50 [4]: 180 nM

SMILES: C#CCN1CCC(NC(=O)c2n[nH]c3ccc(-c4cccc(F)c4F)cc23)CC1 [Compound 367, 5-(2,3-Difluorophenyl)-N-(1-(prop-2-yn-1-yl)piperidin-4-yl)-1H-indazole-3-carboxamide]
- EC50 [2]: 35 nM
- Conc (nM) of Max. activity [3]: 2700 nM
- Max. Activity as % TGF-β3 activity [3]: 65%

SMILES: O=C(Nc1ccc(N2CC(F)(F)C2)nc1)c1n[nH]c2ccc(-c3cncc(CN4CCCCC4)c3)cc12 [Compound 71, N-(6-(3,3-Difluoroazetidin-1-yl)pyridin-3-yl)-5-(5-(piperidin-1-ylmethyl)pyridin-3-yl)-1H-indazole-3-carboxamide]
- EC50 [2]: 2 nM
- Conc (nM) of Max. activity [3]: 900 nM
- Conc (nM) of 100% TGF-β3 activity [3]: 900 nM
- Max. Activity as % TGF-β3 activity [3]: 110%

SMILES: CN1CCN(c2ccc(NC(=O)c3n[nH]c4ccc(-c5cncc(CN6CCC(F)(F)C6)c5)cc34)cn2)CC1 [Compound 55, 5-(5-((3,3-Difluoropyrrolidin-1-yl)methyl)pyridin-3-yl)-N-(6-(4-methylpiperazin-1-yl)pyridin-3-yl)-1H-indazole-3-carboxamide]
- IC50 [1]: 4 nM
- EC50 [2]: 1 nM
- Conc (nM) of Max. activity [3]: 100 nM
- Max. Activity as % TGF-β3 activity [3]: 69%
- IC50 [4]: 140 nM

SMILES: O=C(Nc1ccnc(N2CCCCC2)c1)c1n[nH]c2ccc(-c3cccnc3)cc12 [Compound 103, N-(2-(Piperidin-1-yl)pyridin-4-yl)-5-(pyridin-3-yl)-1H-indazole-3-carboxamide]
- EC50 [2]: 5 nM
- Conc (nM) of Max. activity [3]: 2700 nM
- Conc (nM) of 100% TGF-β3 activity [3]: 2700 nM
- Max. Activity as % TGF-β3 activity [3]: 130%

SMILES: C[C@@H]1CN(c2ccc(NC(=O)c3n[nH]c4ccc(-c5cncc(CN6CCCCC6)c5)cc34)cn2)C[C@H](C)O1 [Compound 1141, N-(6-((2S,6R)-2,6-dimethylmorpholino)pyridin-3-yl)-5-(5-(piperidin-1-ylmethyl)pyridin-3-yl)-1H-indazole-3-carboxamide]
- IC50 [1]: 3 nM
- EC50 [2]: 1 nM
- Conc (nM) of Max. activity [3]: 2700 nM
- Conc (nM) of 100% TGF-β3 activity [3]: 2700 nM
- Max. Activity as % TGF-β3 activity [3]: 129%
- IC50 [4]: 468 nM

SMILES: O=C(Nc1cnccc1NC(=O)C1CC1)c1n[nH]c2ccc(-c3cncc(CN4CCCCC4)c3)cc12 [Compound 74, N-(4-(Cyclopropanecarboxamido)pyridin-3-yl)-5-(5-(piperidin-1-ylmethyl)pyridin-3-yl)-1H-indazole-3-carboxamide]
- IC50 [1]: 120 nM
- Conc (nM) of Max. activity [3]: 10 nM
- Max. Activity as % TGF-β3 activity [3]: 31%
- IC50 [4]: 2740 nM

SMILES: CC(C)Oc1ccc(NC(=O)c2n[nH]c3ccc(-c4cncc(CN5CCCCC5)c4)cc23)cn1 [Compound 67, N-(6-Isopropoxypyridin-3-yl)-5-(5-(piperidin-1-ylmethyl)pyridin-3-yl)-1H-indazole-3-carboxamide]
- IC50 [1]: 41 nM
- EC50 [2]: 3 nM
- Conc (nM) of Max. activity [3]: 2700 nM
- Max. Activity as % TGF-β3 activity [3]: 82%
- IC50 [4]: 251 nM

SMILES: O=C(Nc1cccnc1)c1n[nH]c2cc(F)c(-c3cccnc3)cc12 [Compound 99, 6-Fluoro-N,5-di(pyridin-3-yl)-1H-indazole-3-carboxamide]
- EC50 [2]: 878 nM
- Conc (nM) of Max. activity [3]: 2700 nM
- Max. Activity as % TGF-β3 activity [3]: 64%

SMILES: CC1CCN(Cc2cncc(-c3ccc4[nH]nc(C(=O)Nc5cccnc5)c4c3)c2)CC1 [Compound 82, 5-(5-((4-Methylpiperidin-1-yl)methyl)pyridin-3-yl)-N-(pyridin-3-yl)-1H-indazole-3-carboxamide]
- IC50 [1]: 7 nM
- EC50 [2]: 2 nM
- Conc (nM) of Max. activity [3]: 900 nM
- Conc (nM) of 100% TGF-β3 activity [3]: 900 nM
- Max. Activity as % TGF-β3 activity [3]: 109%
- IC50 [4]: 129 nM

SMILES: Cc1ncc(NC(=O)c2n[nH]c3ccc(-c4cncc(CN5CCCCC5)c4)cc23)cn1 [Compound 98, N-(2-Methylpyrimidin-5-yl)-5-(5-(piperidin-1-ylmethyl)pyridin-3-yl)-1H-indazole-3-carboxamide]
- EC50 [2]: 1 nM
- Conc (nM) of Max. activity [3]: 2700 nM
- Conc (nM) of 100% TGF-β3 activity [3]: 2700 nM
- Max. Activity as % TGF-β3 activity [3]: 161%

SMILES: CC(C)CN1CCC(NC(=O)c2n[nH]c3ccc(-c4cccnc4)cc23)CC1 [Compound 91, N-(1-Isobutylpiperidin-4-yl)-5-(pyridin-3-yl)-1H-indazole-3-carboxamide]
- EC50 [2]: 11 nM
- Conc (nM) of Max. activity [3]: 2700 nM
- Conc (nM) of 100% TGF-β3 activity [3]: 2700 nM
- Max. Activity as % TGF-β3 activity [3]: 120%

SMILES: CC(C)NC(=O)c1n[nH]c2ccc(-c3cncc(CN4CCC(F)(F)CC4)c3)cc12 [Compound 132, 5-(5-((4,4-Difluoropiperidin-1-yl)methyl)pyridin-3-yl)-N-isopropyl-1H-indazole-3-carboxamide]
- IC50 [1]: 47 nM
- EC50 [2]: 6 nM
- Conc (nM) of Max. activity [3]: 2700 nM
- Conc (nM) of 100% TGF-β3 activity [3]: 2700 nM
- IC50 [4]: 237 nM

SMILES: O=C(Nc1ccccn1)c1n[nH]c2cc(F)c(-c3cncc(CN4CCCCC4)c3)cc12 [Compound 1343, 6-Fluoro-5-(5-(piperidin-1-ylmethyl)pyridin-3-yl)-N-(pyridin-2-yl)-1H-indazole-3-carboxamide]
- EC50 [2]: 2 nM
- Conc (nM) of Max. activity [3]: 2700 nM
- Max. Activity as % TGF-β3 activity [3]: 67%

SMILES: O=C(Nc1cccnc1)c1n[nH]c2cc(F)c(-c3cncc(CN4CCCCC4)c3)cc12 [Compound 1153, 6-Fluoro-5-(5-(piperidin-1-ylmethyl)pyridin-3-yl)-N-(pyridin-3-yl)-1H-indazole-3-carboxamide]
- EC50 [2]: 1 nM
- Conc (nM) of Max. activity [3]: 2700 nM
- Conc (nM) of 100% TGF-β3 activity [3]: 900 nM
- Max. Activity as % TGF-β3 activity [3]: 146%

SMILES: CC(C)N1CCC(NC(=O)c2n[nH]c3ccc(-c4cncc(Cl)c4)cc23)CC1 [Compound 1305, 5-(5-Chloropyridin-3-yl)-N-(1-isopropylpiperidin-4-yl)-1H-indazole-3-carboxamide]
- EC50 [2]: 124 nM
- Conc (nM) of Max. activity [3]: 2700 nM
- Conc (nM) of 100% TGF-β3 activity [3]: 2700 nM
- Max. Activity as % TGF-β3 activity [3]: 121%

SMILES: COc1cc(NC(=O)c2n[nH]c3ccc(-c4cncc(CN5CCCCC5)c4)cc23)ccn1 [Compound 78, N-(2-Methoxypyridin-4-yl)-5-(5-(piperidin-1-ylmethyl)pyridin-3-yl)-1H-indazole-3-carboxamide]
- EC50 [2]: 2 nM
- Conc (nM) of Max. activity [3]: 900 nM
- Max. Activity as % TGF-β3 activity [3]: 79%

SMILES: O=C(Nc1cccc2cccnc12)c1n[nH]c2ccc(-c3cccnc3)cc12 [Compound 43, 5-(Pyridin-3-yl)-N-(quinolin-8-yl)-1H-indazole-3-carboxamide]
- EC50 [2]: 2200 nM
- Conc (nM) of Max. activity [3]: 100 nM
- Max. Activity as % TGF-β3 activity [3]: 38%

SMILES: O=C(NC1CC1)c1n[nH]c2ccc(-c3cncnc3)cc12 [Compound 1269, N-Cyclopropyl-5-(pyrimidin-5-yl)-1H-indazole-3-carboxamide]
- EC50 [2]: 76 nM
- Conc (nM) of Max. activity [3]: 2700 nM
- Max. Activity as % TGF-β3 activity [3]: 53%
